We go through 10 molecules from ChEMBL document CHEMBL1134898, “Synthesis and biological evaluation of novel D-2'-azido-2',3'-dideoxyarabinofuranosyl-4'-thiopyrimidines and purines” (Bioorg Med Chem Lett, 2002).

One may read the EC50 as the concentration that produces a half-maximal response. For orientation: CC50 means the concentration that lowers cell viability or growth by half. A high value points to lower toxicity to the cells.

Values after ≈ are worked out from the molar mass of the structure shown. Bounds are passed on as bounds.

For one assay, the system named is Human alphaherpesvirus 1. Description: Compound was tested for antiviral activity against HSV-1. It counts as functional, organism-based.
Assay [1] relates to MT4. The assay can be described thus: Compound was tested for antiviral activity indicative of 50% cytopathic concentration in virus (HIV-1) infected MT-4 cells. It counts as functional, cell-based. To be noted: Homo sapiens.
Assay [2] relates to MT4. The assay can be described thus: Cytotoxicity indicative of 50% survival concentration in virus-uninfected MT-4 cells. It counts as functional. The settings on record: Homo sapiens.
The next assay concerns Human alphaherpesvirus 2. Description: Compound was tested for antiviral activity against HSV-2. It counts as functional, organism-based.
The subject of assay [3] is MT4. Description: Cytotoxicity indicative of 50% survival concentration in virus -uninfected MT-4 cells. It is filed as functional. The settings on record: Homo sapiens.
Assay [4] has as its system MT4. Description: Cytotoxicity indicative of 50% survival concentration in HSV-1-uninfected MT-4 cells. It is filed as functional. The settings on record: Homo sapiens.
In assay [5] the test system is MT4. The assay can be described thus: Cytotoxicity indicative of 50% survival concentration in HSV-2-uninfected MT-4 cells. It is filed as functional. To be noted: Homo sapiens.

For `[N-]=[N+]=NC1C[C@@H](CO)S[C@@H]1n1ccc(N)nc1=O` (stereo not given in full), the EC50 in the assay on Human alphaherpesvirus 1, in the assay with MT4 [1] and in the assay on Human alphaherpesvirus 2 was more than 100 mg/L in each case. The molecule further had a CC50 with MT4 [2] of more than 100 mg/L.
On to `[N-]=[N+]=N[C@H]1C[C@@H](CO)S[C@H]1n1ccc(N)nc1=O`, for which the figures for the EC50 in the assay with Human alphaherpesvirus 1, in the assay on MT4 [1] and in the assay on Human alphaherpesvirus 2 were more than 100 mg/L, more than 41.7 mg/L and more than 100 mg/L, respectively. This molecule registered a 50% cytotoxic concentration (CC50) in the assay with MT4 [3] of 41.7 mg/L (≈ 155 µM).
For `[N-]=[N+]=N[C@H]1C[C@@H](CO)S[C@@H]1n1cnc2c(N)ncnc21`, the values for the EC50 with Human alphaherpesvirus 1, with MT4 [1] and in the assay on Human alphaherpesvirus 2 were more than 100 mg/L, more than 17.3 mg/L and more than 100 mg/L, respectively. This molecule also came in with a CC50 with MT4 [2] of 17.3 mg/L (≈ 59.2 µM).
On to `[N-]=[N+]=N[C@H]1C[C@@H](CO)S[C@H]1n1cnc2c(N)ncnc21`, for which the values for the EC50 with Human alphaherpesvirus 1, in the assay on MT4 [1] and with Human alphaherpesvirus 2 were more than 100 mg/L, more than 66.6 mg/L and more than 100 mg/L, respectively. This molecule also registered a CC50 in the assay with MT4 [2] of 66.6 mg/L (≈ 228 µM).
With `Cc1cn([C@H]2S[C@H](CO)C[C@@H]2N=[N+]=[N-])c(=O)[nH]c1=O`, the EC50 in the assay with Human alphaherpesvirus 1 was more than 100 mg/L; in the assay with MT4 [1] it was more than 63.5 mg/L; with Human alphaherpesvirus 2, more than 100 mg/L. The molecule further had a CC50 with MT4 [2] of 63.5 mg/L (≈ 224 µM).
Turning to `CNc1ncnc2c1ncn2[C@H]1S[C@H](CO)C[C@@H]1N=[N+]=[N-]`, the EC50 with Human alphaherpesvirus 1 is more than 100 mg/L; with MT4 [1] it was more than 61.5 mg/L; in the assay on Human alphaherpesvirus 2, more than 100 mg/L. Moreover, the CC50 in the assay on MT4 [2] was found to be 61.5 mg/L (≈ 201 µM).
For the molecule `Cc1cn([C@@H]2S[C@H](CO)C[C@@H]2N=[N+]=[N-])c(=O)[nH]c1=O`, the concentration giving a half-maximal response (EC50) in the assay with Human alphaherpesvirus 1 is more than 100 mg/L; in the assay with MT4 [1] it was more than 56.5 mg/L; with Human alphaherpesvirus 2 it was more than 100 mg/L. Besides, the CC50 in the assay on MT4 [2] amounted to 56.1 mg/L (≈ 198 µM).
Take `CNc1ncnc2c1ncn2[C@@H]1SC(CO)C[C@@H]1N=[N+]=[N-]` (single isomer, unassigned): the concentration giving a half-maximal response (EC50) is more than 100 mg/L in the assay with Human alphaherpesvirus 1, more than 48.1 mg/L with MT4 [1] and more than 100 mg/L in the assay with Human alphaherpesvirus 2. This molecule came in with a CC50 in the assay with MT4 [2] of 48.1 mg/L (≈ 157 µM).
As to `Nc1nc2c(ncn2COCCO)c(=O)[nH]1` [ACYCLOVIR], the EC50 in the assay with Human alphaherpesvirus 1 was determined as 0.13 mg/L (≈ 0.577 µM); in the assay on Human alphaherpesvirus 2 it was 0.88 mg/L (≈ 3.91 µM). Besides, the CC50 with MT4 [4] is more than 76.6 mg/L; with MT4 [5], more than 11.4 mg/L.
Consider `Cc1cn([C@H]2C[C@H](N=[N+]=[N-])[C@@H](CO)O2)c(=O)[nH]c1=O` [ZIDOVUDINE], for which the figures for the 50% effective concentration (EC50) with Human alphaherpesvirus 1, in the assay with MT4 [1] and in the assay on Human alphaherpesvirus 2 were 0.52 mg/L (≈ 1.95 µM), 0.0005 mg/L (≈ 0.00187 µM) and more than 100 mg/L, respectively. The molecule also gave a CC50 in the assay on MT4 [2] of 0.52 mg/L (≈ 1.95 µM).
